The text below walks through data of patent US9023998B2, “Near infrared fluorogen and fluorescent activating proteins for in vivo imaging and live-cell biosensing” (Carnegie Mellon University, priority 2013, dated 2015).

One test relates to mL9.3 (SEQ. ID. NO. 20). In words: Fluorogen activation by purified monomeric FAP mL9.3 (spectra). It counts as biochemical. The note with it: purified protein, about 300 nM fluorogen, PBS pH 7.4. The source says:
While the peptide linker that joins the VL units in dL9.2 (SEQ. ID. NO. 2) and dL9.5 (SEQ. ID. NO. 3) enhance fluorogen binding affinity and binding rate by reducing the entropic cost of assembly around the fluorogen, the linker is not strictly necessary for fluorogenic activation. […] In panels C and D, corresponding spectra from mL9.5:SKC602 (SEQ. ID. NO. 21:SKC602) and mL9.5:SKC728 (SEQ. ID. NO. 21:SKC728) fluoromodules are shown. Spectra were obtained using a Quantamaster™ fluorometer (PTI) equipped with dual monochromators on both excitation and emission light paths.
To facilitate ligase-dependent cloning methods, the above procedure was repeated for dL9.5 (SEQ. ID. NO. 6), using otherwise identical primers that appended BspEI (TCCGGA) (SEQ. ID. NO. 25) and BamHI (GGATCC) (SEQ. ID. NO. 26) sites directly at the 5′ and 3′ termini, respectively, of the dL9.5 gene (SEQ. ID. NO. 6). The resulting plasmid, designated pPNL9z-dL9.5, could be digested with BspEI (SEQ. ID. NO. 25) and BamHI (SEQ. ID. NO. 26) to produce a yeast expression vector backbone capable of receiving inserts with like-digested termini. […]

For another test, the system named is dL9.2 (SEQ. ID. NO. 2). In words: Binding/activation of fluorogen by FAP dL9.2. The source says: A precursor FAP designated dL9 (SEQ. ID. NO. 1) was designed using the coding sequence of the light-chain from HL9-MG, a scFv originally isolated for binding and fluorescence activation of malachite green-based fluorogenic dyes (Szent-Gyorgyi, et al. 2008, incorporated herein by reference). This FAP was assembled as a tandem dimer of light chains by attaching a glycine-serine linker and a codon-optimized copy of the light chain gene to the original light chain via PCR. […] Mutagenesis and library generation by electroporation was performed in a previously described manner (Chao, et al., Isolating and engineering human antibodies using yeast surface display, Nature Protocols, vol. 1, No. 2, pp. 755-768 (2006)), but screening employed the protein secretion vector pPNL9, rather than the surface display vector pPNL6: Individual S. cerevisiae expressing FAP mutants were incubated with cell-permeant fluorogen MG-ester and the brightest activators were cloned via flow cytometry. Clones were induced for FAP production in tryptone-based protein secretion media (Szent-Gyorgyi, et al. 2008) and media was screened for activation of MG-ester after five days of induction at 20° C. This screen yielded dL9.2 (SEQ. ID. NO. 2): a bright, stable FAP amenable to high levels of expression. […]

The next test concerns dL9.5 (SEQ. ID. NO. 3). Briefly: Binding of fluorogen by FAP dL9.5. The source says:
The V70A mutation was propagated to both light chains to produce dL9.3 (SEQ. ID. NO. 31), which was immediately subjected to mutagenesis and screening in the surface-display format described previously (Chao, et al., Nature Protocols (2006)) in the presence of SKC602. The brightest clone collected from this screen was designated dL9.5 (SEQ. ID. NO. 3), and sequencing described exactly two mutations—tyrosine 96 to histidine—on both light chains.

`CN(C)c1ccc(C(/C=C/c2ccc(N(C)CCCCC(=O)NC(CCS(=O)(=O)O)C(=O)O)cc2)=C2C=CC(=[N+](C)C)C=C2)cc1` (centres unmarked) [SKC728]: the “Induction of NIR fluorescence by mL9.3” value in the test with mL9.3 (SEQ. ID. NO. 20) was “induces fluorescence”. For the same compound, the “Binding and fluorescence activation by dL9.2” value with dL9.2 (SEQ. ID. NO. 2) is on record as “bind”. Also, the “Binding by dL9.5” value in the test on dL9.5 (SEQ. ID. NO. 3) is “bind”.

For the compound `CN(C)c1ccc(/C=C/C(=C2C=CC(=[N+](C)C)C=C2)c2ccc(N(C)C)cc2)cc1` [SKC602, (E)-N-(4-(1,3-bis(4-(dimethylamino)phenyl)allylidene)cyclohexa-2,5-dien-1-ylidene)-N-methylmethanaminium], the “Induction of NIR fluorescence by mL9.3” value in the test with mL9.3 (SEQ. ID. NO. 20) is “induces fluorescence”. Moreover, in the test with dL9.2 (SEQ. ID. NO. 2), the “Binding and fluorescence activation by dL9.2” value was “bind and activate fluorescence”.
